Source: article PMC8179539, “Query-guided protein–protein interaction inhibitor discovery” (Chemical Science, 2021)
Several values for one entry are separate records, joined by “and”; a condition that tells them apart may be missing. Equal entries are not always repeated. Where two headings read alike, the source gives them in different places.

Tests used:
p53/hDM2 = p53/hDM2 (Homo sapiens, UniProt Q00987); experiment: competition fluorescence anisotropy assay, displacement of p53 15-31 Flu from hDM2; format: binding; conditions: for ligand efficiency: LE = 1.4 × pIC50/nHA, from p53/hDM2 fluorescence anisotropy IC50
GKAP/SHANK1-PDZ = target: T1, GKAP/SHANK1-PDZ (Homo sapiens, UniProt Q9Y566); experiment: fluorescence anisotropy competition assay GKAP/SHANK1-PDZ; format: binding; conditions: for IC50: FITC-GKAP 50 nM, SHANK1-PDZ 1 μM, pH 7.4, 20 mM Tris, 150 mM NaCl, 0.01% Triton-X-100
T1 construct: Shank 1 PDZ domain (656-762) was expressed and purified as described; made in house
T1 sequence (Q9Y566 656-762): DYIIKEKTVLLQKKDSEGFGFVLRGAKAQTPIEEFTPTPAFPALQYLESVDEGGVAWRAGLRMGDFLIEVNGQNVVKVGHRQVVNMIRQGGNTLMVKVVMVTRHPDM

BID/MCL-1 = BID/MCL-1 (Homo sapiens, UniProt Q07820); conditions: 200 nM MCL-1, 50 nM FITC-Ahx-NOXA-B tracer (Fig. S10)
SHANK1-PDZ = SHANK1-PDZ (Homo sapiens, UniProt Q9Y566); experiment: biochemical
[1] = Table S2, SAR competition assays, Plate Reader II, * lower anisotropy observed, attributed to solubility causing assay interference (7a, 7b, 7c), read-out: IC50
[2] = Fig. 4b, fluorescence anisotropy competition: 150 nM hDM2 and p53 15-31 Flu, 40 mM phosphate, pH 7.4, 200 mM NaCl, 0.02 mg/ml BSA, > 150 μM, read-out: IC50 (Fig. 4b)
[3] = Table S2, SAR competition assays, Plate Reader II, read-out: IC50
[4] = fluorescence anisotropy competition, 150 nM hDM2, 25 nM p53 15-31 Flu, 40 mM phosphate pH 7.4, 200 mM NaCl, 0.02 mg/ml BSA, read-out: IC50
[5] = Fig. 4b, same assay, unit inferred, † non-specific interactions observed (11c), read-out: IC50 (Fig. 4b, numbers inside wedges)

Molecule | IC50 (p53/hDM2; [1]) | IC50 (p53/hDM2; [3]) | IC50 (p53/hDM2; [4]) | further results
O=C(CC(c1ccc(Cl)s1)c1c[nH]c2cc(Cl)ccc12)NCCc1ccccc1 (stereo not drawn) [8b] | 18 ± 11 µM |  |  | 
CC(C)(C(=O)NCCc1ccccn1)C(c1ccc(Cl)s1)c1c[nH]c2ccc(Cl)cc12 (stereo not drawn) [compound 12] |  | 8 ± 4 µM | ~8 µM | IC50 (p53/hDM2; [2]): 8 µM
COCCNC(=O)CC(c1ccccc1)c1c[nH]c2ccc(Cl)cc12 (stereo not drawn) [9d] | > 200 µM |  |  | 
NS(=O)(=O)c1ccc2c(c1)[C@@H]1C=CC[C@@H]1[C@H](C(=O)O)N2 [Z-1] |  |  |  | IC50 (GKAP/SHANK1-PDZ): 390 µM; ligand efficiency (LE) (GKAP/SHANK1-PDZ; from GKAP/SHANK1-PDZ fluorescence anisotropy IC50): 0.24
CC(C)(C)OC(=O)NCCNC(=O)c1[nH]c2ccc(Cl)cc2c1C(CC(=O)NCCc1ccccn1)c1ccc(Cl)s1 (stereo not drawn) [11g] |  | > 200 µM |  | 
O=C(CC(c1ccc(Cl)s1)c1c(C(=O)O)[nH]c2ccc(Cl)cc12)NCCc1ccccn1 (stereo not drawn) [11b] |  | 2.9 ± 0.2 µM |  | IC50 (p53/hDM2; [5]): 3 µM; ligand efficiency (p53/hDM2): 0.26
O=C(O)CCNC(=O)c1[nH]c2ccc(Cl)cc2c1C(CC(=O)NCCc1ccccn1)c1ccc(Cl)s1 (stereo not drawn) [11e] |  | 14 ± 2 µM |  | 
CC(C(=O)NCCc1ccccn1)C(c1ccc(Cl)s1)c1c[nH]c2ccc(Cl)cc12 (stereo not drawn) [syn-10] |  | 21 ± 14 µM |  | 
O=C(CC(c1ccc(Cl)s1)c1c[nH]c2ccc(Cl)cc12)NCc1ccccc1 (stereo not drawn) [7c] | 5 ± 2 µM |  |  | p53/hDM2 inhibitory activity in words (SAR) (p53/hDM2; competition anisotropy, SAR discussion): loss of activity
O=C(CC(c1ccccc1)c1c[nH]c2ccc(Cl)cc12)NCCc1ccccc1 (stereo not drawn) [9b] | > 200 µM |  |  | 
CC(C)CNC(=O)c1[nH]c2ccc(Cl)cc2c1C(CC(=O)NCCc1ccccn1)c1ccc(Cl)s1 (stereo not drawn) [11i] |  | > 200 µM |  | 
CC(C(=O)NCCc1ccccn1)C(c1ccc(Cl)s1)c1c[nH]c2ccc(Cl)cc12 (single isomer, unassigned; (-)) [(−)-anti-10] |  | 4.6 ± 0.6 µM | 4.6 µM | 
O=C(CC(c1ccc(Cl)s1)c1c(Br)[nH]c2ccc(Cl)cc12)NCCc1ccccn1 (stereo not drawn) [11d] |  | 12 ± 9 µM |  | 
CC(C(=O)N1CCC(c2ccccn2)C1)C(c1ccc(Cl)s1)c1c[nH]c2cc(Cl)ccc12 (stereo not drawn) [compound 13] |  | 1.2 ± 0.4 µM | 1.2 µM | IC50 (p53/hDM2; [2]): 1 µM
CCOC(=O)CCNC(=O)c1[nH]c2ccc(Cl)cc2c1C(CC(=O)NCCc1ccccn1)c1ccc(Cl)s1 (stereo not drawn) [11c] |  | 3.2 ± 0.7 µM |  | IC50 (p53/hDM2; [5]): 3 µM
O=C(CC(c1ccc(Cl)s1)c1c[nH]c2ccc(Cl)cc12)NCCc1ccccn1 (stereo not drawn) [A1] | 7.9 ± 0.9 µM |  | 7.9 µM and 8 µM | IC50 (p53/hDM2; [5]): 8 µM; ligand efficiency (p53/hDM2): 0.24; inhibition in FA competition assay for BID/MCL-1 (BID/MCL-1): no inhibition
O=C(CC(c1ccccc1)c1c[nH]c2ccc(Cl)cc12)NCCc1ccccn1 (stereo not drawn) [9a] | > 200 µM |  |  | 
CC(C(=O)NCCc1ccccn1)C(c1ccc(Cl)s1)c1c[nH]c2ccc(Cl)cc12 (single isomer, unassigned; (+)) [(+)-anti-10] |  | 2.9 ± 0.4 µM | 2.9 µM | 
COCCNC(=O)CC(c1ccc(Cl)s1)c1c[nH]c2cc(Cl)ccc12 (stereo not drawn) [8c] | 86 ± 29 µM |  |  | 
O=C(CC(c1ccc(Cl)s1)c1c[nH]c2cc(Cl)ccc12)NCCc1ccccn1 (stereo not drawn) [8a] | 10 ± 2 µM |  | 6 µM | 
NCCNC(=O)c1[nH]c2ccc(Cl)cc2c1C(CC(=O)NCCc1ccccn1)c1ccc(Cl)s1 (stereo not drawn) [11f] |  | 25 ± 4 µM | 25 µM | 
CC(C(=O)NCCc1ccccn1)C(c1ccc(Cl)s1)c1c[nH]c2ccc(Cl)cc12 (stereo not drawn) [anti-10] |  | 3.1 ± 0.4 µM | 3.1 µM | ligand efficiency (p53/hDM2): 0.26
O=C(CC(c1ccc(Cl)s1)c1c(C(=O)O)[nH]c2ccc(Cl)cc12)NC1CC1c1ccccc1 (stereo not drawn) [compound 14] |  | 2.2 ± 0.5 µM | 2.2 µM | IC50 (p53/hDM2; [2]): 2 µM
Ac-EAQTRF-OH [L6F GKAP, Ac-Glu-Ala-Gln-Thr-Arg-Phe-CO2H] |  |  |  | Kd (SHANK1-PDZ): 5 µM
O=C(CC(c1ccc(Cl)s1)c1c(C(=O)NCc2ccccc2)[nH]c2ccc(Cl)cc12)NCCc1ccccn1 (stereo not drawn) [11h] |  | > 200 µM |  | 
O=C(CC(c1ccc(Cl)s1)c1c[nH]c2ccc(Cl)cc12)NCCc1ccccc1 (stereo not drawn) [7b] | 13 ± 2 µM |  |  | 
O=C(O)c1ccc([N+](=O)[O-])c2c1NC(C(=O)O)[C@H]1CC=C[C@@H]21 (stereo partly drawn) [Z-2, reference compound] |  |  |  | IC50 (GKAP/SHANK1-PDZ): ~110 µM
COCCNC(=O)CC(c1ccc(Cl)s1)c1c[nH]c2ccc(Cl)cc12 (stereo not drawn) [7d] | > 200 µM |  |  | 
O=C(CC(c1ccc(Cl)s1)c1c[nH]c2ccc(Cl)cc12)NC1CC1c1ccccc1 (stereo not drawn) [7a] | 1.2 ± 1 µM |  |  | 
O=C(CC(c1ccc(Cl)s1)c1c(Br)[nH]c2cc(Cl)ccc12)NCCc1ccccn1 (stereo not drawn) [11a] |  | 1.7 ± 0.2 µM | 1 µM | IC50 (p53/hDM2; [5]): 2 µM; ligand efficiency (p53/hDM2): 0.28
